# Like-named read-outs stand apart in the source and are kept apart here.
# What was measured:
# [1] = target: T1, Hsp90 in C. albicans (SC5314) lysate (Candida albicans, UniProt P46598); experiment: biochemical; format: binding; details: for Ratio re. GdA: EC50 relative to GdA; for Ratio re. GdA / FP signal (raw) / FP signal relative to 0 nM / FP signal: SC5314 lysate; for FP signal: raw
# T1 construct: endogenous in cells; host or cells: C. albicans SC5314 whole-cell lysate
# Hsp90 in HEPG2 lysate = details: for FP signal: raw
# [2] = ratio of GdA-normalized EC50s, human over fungal lysate
# [3] = ratio of GdA-relative EC50 ratios, HepG2 over SC5314
# [4] = EC50 / EC50 of GdA in HepG2 lysate
# [5] = EC50 relative to GdA, HEPG2 lysate
# [6] = HEPG2 lysate, log concentration 0.137354 (1.372 nM)
# [7] = HEPG2 lysate, log concentration 0.61437 (4.115 nM)
# [8] = HEPG2 lysate, log concentration 1.09153 (12.346 nM)
# [9] = HEPG2 lysate, log concentration 1.56864 (37.037 nM)
# [10] = HEPG2 lysate, log concentration 2.04576 (111.111 nM)
# [11] = HEPG2 lysate, log concentration 2.52288 (333.333 nM)
# [12] = HEPG2 lysate, log concentration 3 (1000 nM)
# [13] = HEPG2 lysate, log concentration 3.47712 (3000 nM)
# [14] = HEPG2 lysate, log concentration -0.340084 (0.457 nM)
# [15] = HepG2 lysate, 0.457 nM compound
# [16] = HepG2 lysate, 1.372 nM compound
# [17] = HepG2 lysate, 4.115 nM compound
# [18] = HepG2 lysate, […] nM compound
# [19] = HepG2 lysate, 37.037 nM compound
# [20] = HepG2 lysate, 111.111 nM compound
# [21] = HepG2 lysate, 333.333 nM compound
# [22] = HepG2 lysate, oxime panel experiment 220817
# T1 sequence (P46598 whole entry): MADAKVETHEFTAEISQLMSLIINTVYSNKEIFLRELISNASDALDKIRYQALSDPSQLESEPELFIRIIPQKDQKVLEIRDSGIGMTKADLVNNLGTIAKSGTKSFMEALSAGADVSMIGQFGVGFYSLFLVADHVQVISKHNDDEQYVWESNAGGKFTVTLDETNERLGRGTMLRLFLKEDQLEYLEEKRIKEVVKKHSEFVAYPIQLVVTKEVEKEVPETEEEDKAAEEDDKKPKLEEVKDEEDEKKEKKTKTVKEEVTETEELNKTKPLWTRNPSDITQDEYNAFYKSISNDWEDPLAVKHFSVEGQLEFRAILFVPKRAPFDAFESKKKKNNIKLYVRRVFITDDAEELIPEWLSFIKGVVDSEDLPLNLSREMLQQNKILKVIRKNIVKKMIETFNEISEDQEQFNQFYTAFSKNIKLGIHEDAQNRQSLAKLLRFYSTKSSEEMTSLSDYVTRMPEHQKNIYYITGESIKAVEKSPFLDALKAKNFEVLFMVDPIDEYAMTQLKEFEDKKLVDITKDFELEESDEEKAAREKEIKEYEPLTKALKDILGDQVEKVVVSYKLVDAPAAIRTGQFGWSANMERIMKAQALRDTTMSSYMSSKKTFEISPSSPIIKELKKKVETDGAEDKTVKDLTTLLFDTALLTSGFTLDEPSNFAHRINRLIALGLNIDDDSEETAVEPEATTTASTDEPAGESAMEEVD
smiles,measurement,setting,value
Cc1ccc(CON=C2C=CC=CC3OC3CC(C)OC(=O)c3c(O)cc(O)c(Cl)c3C2)cc1 (mixture of isomers) [compound 218],Ratio re. GdA,[1],57.1252
same,FP signal (raw),[1]; 0.457 nM,202
same,FP signal relative to 0 nM,[1]; 0.457 nM compound,0.9806
same,FP signal,[1]; 0.457 nM compound,202
same,FP signal (raw),[1]; 1.372 nM,199
same,FP signal relative to 0 nM,[1]; 1.372 nM compound,0.966
same,FP signal,[1]; 1.372 nM compound,199
same,FP signal (raw),[1]; 4.115 nM,200
same,FP signal relative to 0 nM,[1]; 4.115 nM compound,0.9709
same,FP signal,[1]; 4.115 nM compound,200
same,FP signal (raw),[1]; […] nM,199
same,FP signal relative to 0 nM,[1]; […] nM compound,0.966
same,FP signal,[1]; […] nM compound,199
same,FP signal (raw),[1]; 37.037 nM,200
same,FP signal relative to 0 nM,[1]; 37.037 nM compound,0.9709
same,FP signal,[1]; 37.037 nM compound,200
same,FP signal (raw),[1]; 111.111 nM,197
same,FP signal relative to 0 nM,[1]; 111.111 nM compound,0.9563
same,FP signal,[1]; 111.111 nM compound,197
same,FP signal (raw),[1]; 333.333 nM,171
same,FP signal relative to 0 nM,[1]; 333.333 nM compound,0.8301
same,FP signal,[1]; 333.333 nM compound,171
same,FP signal (raw),[1]; 1000 nM,108
same,FP signal relative to 0 nM,[1]; 1000 nM compound,0.5243
same,FP signal,[1]; 1000 nM compound,108
same,FP signal (raw),[1]; 3000 nM,45
same,FP signal relative to 0 nM,[1]; 3000 nM compound,0.2184
same,FP signal,[1]; 3000 nM compound,45
same,HepG2/SC5314,[1]; [2],1.973
same,HepG2/SC5314,[1]; [3],1.973
same,Ratio rel. GdA (HepG2),Hsp90 in HEPG2 lysate; [4],112.714
same,Ratio rel. GdA (HepG2),Hsp90 in HEPG2 lysate; [5],112.714
same,"FP signal, Fxn Control",Hsp90 in HEPG2 lysate; [6],0.9811
same,"FP signal, Fxn Control",Hsp90 in HEPG2 lysate; [7],0.9953
same,"FP signal, Fxn Control",Hsp90 in HEPG2 lysate; [8],0.9858
same,"FP signal, Fxn Control",Hsp90 in HEPG2 lysate; [9],0.9906
same,"FP signal, Fxn Control",Hsp90 in HEPG2 lysate; [10],0.9811
same,"FP signal, Fxn Control",Hsp90 in HEPG2 lysate; [11],0.9575
same,"FP signal, Fxn Control",Hsp90 in HEPG2 lysate; [12],0.8066
same,"FP signal, Fxn Control",Hsp90 in HEPG2 lysate; [13],0.4009
same,"FP signal, Fxn Control",Hsp90 in HEPG2 lysate; [14],0.9906
same,FP signal (raw),"Hsp90 in HEPG2 lysate; HepG2 lysate, 0.457 nM",210
same,FP signal,Hsp90 in HEPG2 lysate; [15],210
same,FP signal (raw),"Hsp90 in HEPG2 lysate; HepG2 lysate, 1.372 nM",208
same,FP signal,Hsp90 in HEPG2 lysate; [16],208
same,FP signal (raw),"Hsp90 in HEPG2 lysate; HepG2 lysate, 4.115 nM",211
same,FP signal,Hsp90 in HEPG2 lysate; [17],211
same,FP signal (raw),"Hsp90 in HEPG2 lysate; HepG2 lysate, […] nM",209
same,FP signal,Hsp90 in HEPG2 lysate; [18],209
same,FP signal (raw),"Hsp90 in HEPG2 lysate; HepG2 lysate, 37.037 nM",210
same,FP signal,Hsp90 in HEPG2 lysate; [19],210
same,FP signal (raw),"Hsp90 in HEPG2 lysate; HepG2 lysate, 111.111 nM",208
same,FP signal,Hsp90 in HEPG2 lysate; [20],208
same,FP signal (raw),"Hsp90 in HEPG2 lysate; HepG2 lysate, 333.333 nM",203
same,FP signal,Hsp90 in HEPG2 lysate; [21],203
same,FP signal (raw),"Hsp90 in HEPG2 lysate; HepG2 lysate, 1000 nM",171
same,FP signal,"Hsp90 in HEPG2 lysate; HepG2 lysate, 1000 nM compound",171
same,FP signal (raw),"Hsp90 in HEPG2 lysate; HepG2 lysate, 3000 nM",85
same,FP signal,"Hsp90 in HEPG2 lysate; HepG2 lysate, 3000 nM compound",85
same,EC50,Hsp90 in HEPG2 lysate; [22],2500 nM
"CC1CC2OC2C=CC=CC(=NOCCN2CCCC2=O)Cc2c(Cl)c(O)cc(O)c2C(=O)O1 (centres unmarked) [KF58333, reference compound]",EC50,"[1]; EC50, SC5314 lysate, not normalized, oxime panel experiment 220817",6.86 nM
same,Ratio re. GdA,[1],0.4034
same,FP signal (raw),[1]; 0.457 nM,203
same,FP signal relative to 0 nM,[1]; 0.457 nM compound,0.9807
same,FP signal,[1]; 0.457 nM compound,203
same,FP signal (raw),[1]; 1.372 nM,193
same,FP signal relative to 0 nM,[1]; 1.372 nM compound,0.9324
same,FP signal,[1]; 1.372 nM compound,193
same,FP signal (raw),[1]; 4.115 nM,162
same,FP signal relative to 0 nM,[1]; 4.115 nM compound,0.7826
same,FP signal,[1]; 4.115 nM compound,162
same,FP signal (raw),[1]; […] nM,71
same,FP signal relative to 0 nM,[1]; […] nM compound,0.343
same,FP signal,[1]; […] nM compound,71
same,FP signal (raw),[1]; 37.037 nM,44
same,FP signal relative to 0 nM,[1]; 37.037 nM compound,0.2126
same,FP signal,[1]; 37.037 nM compound,44
same,FP signal (raw),[1]; 111.111 nM,38
same,FP signal relative to 0 nM,[1]; 111.111 nM compound,0.1836
same,FP signal,[1]; 111.111 nM compound,38
same,FP signal (raw),[1]; 333.333 nM,35
same,FP signal relative to 0 nM,[1]; 333.333 nM compound,0.1691
same,FP signal,[1]; 333.333 nM compound,35
same,FP signal (raw),[1]; 1000 nM,37
same,FP signal relative to 0 nM,[1]; 1000 nM compound,0.1787
same,FP signal,[1]; 1000 nM compound,37
same,FP signal (raw),[1]; 3000 nM,36
same,FP signal relative to 0 nM,[1]; 3000 nM compound,0.1739
same,FP signal,[1]; 3000 nM compound,36
same,HepG2/SC5314,[1]; [2],1.165
same,HepG2/SC5314,[1]; [3],1.165
same,Ratio rel. GdA (HepG2),Hsp90 in HEPG2 lysate; [4],0.4698
same,Ratio rel. GdA (HepG2),Hsp90 in HEPG2 lysate; [5],0.4698
same,"FP signal, Fxn Control",Hsp90 in HEPG2 lysate; [6],0.9604
same,"FP signal, Fxn Control",Hsp90 in HEPG2 lysate; [7],0.9307
same,"FP signal, Fxn Control",Hsp90 in HEPG2 lysate; [8],0.5149
same,"FP signal, Fxn Control",Hsp90 in HEPG2 lysate; [9],0.302
same,"FP signal, Fxn Control",Hsp90 in HEPG2 lysate; [10],0.2277
same,"FP signal, Fxn Control",Hsp90 in HEPG2 lysate; [11],0.2129
same,"FP signal, Fxn Control",Hsp90 in HEPG2 lysate; [12],0.2277
same,"FP signal, Fxn Control",Hsp90 in HEPG2 lysate; [13],0.2475
same,"FP signal, Fxn Control",Hsp90 in HEPG2 lysate; [14],0.9703
same,FP signal (raw),"Hsp90 in HEPG2 lysate; HepG2 lysate, 0.457 nM",196
same,FP signal,Hsp90 in HEPG2 lysate; [15],196
same,FP signal (raw),"Hsp90 in HEPG2 lysate; HepG2 lysate, 1.372 nM",194
same,FP signal,Hsp90 in HEPG2 lysate; [16],194
same,FP signal (raw),"Hsp90 in HEPG2 lysate; HepG2 lysate, 4.115 nM",188
same,FP signal,Hsp90 in HEPG2 lysate; [17],188
same,FP signal (raw),"Hsp90 in HEPG2 lysate; HepG2 lysate, […] nM",104
same,FP signal,Hsp90 in HEPG2 lysate; [18],104
same,FP signal (raw),"Hsp90 in HEPG2 lysate; HepG2 lysate, 37.037 nM",61
same,FP signal,Hsp90 in HEPG2 lysate; [19],61
same,FP signal (raw),"Hsp90 in HEPG2 lysate; HepG2 lysate, 111.111 nM",46
same,FP signal,Hsp90 in HEPG2 lysate; [20],46
same,FP signal (raw),"Hsp90 in HEPG2 lysate; HepG2 lysate, 333.333 nM",43
same,FP signal,Hsp90 in HEPG2 lysate; [21],43
same,FP signal (raw),"Hsp90 in HEPG2 lysate; HepG2 lysate, 1000 nM",46
same,FP signal,"Hsp90 in HEPG2 lysate; HepG2 lysate, 1000 nM compound",46
same,FP signal (raw),"Hsp90 in HEPG2 lysate; HepG2 lysate, 3000 nM",50
same,FP signal,"Hsp90 in HEPG2 lysate; HepG2 lysate, 3000 nM compound",50
same,EC50,Hsp90 in HEPG2 lysate; [22],10.4 nM
CCNC(=O)c1noc(-c2cc(C(C)C)c(O)cc2O)c1-c1ccc(CN2CCOCC2)cc1 [AUY9222],EC50,"Hsp90 in HEPG2 lysate; Human lysate, refit block, unit inferred",6.26 nM

# Source: publication PMC6345968, “Structural basis for species-selective targeting of Hsp90 in a pathogenic fungus” (Nature Communications, 2019)
